Results as given in US20250387481A1, “PRE-TREATED T CELLS FOR USE AS A MEDICAMENT” (STICHTING HET NEDERLANDS KANKER INSTITUUT-ANTONI VAN …, priority 2022, published 2025).

What was measured:
MMTV-PyMT organoids = assay: MTT measurement of MMTV-PyMT organoid survival upon increasing doses of docetaxel; assay type: cell-based; details: Mus musculus, docetaxel for 72 h
Procedure: Breast cancer organoids were derived from K14-Cre; Brca1fl/fl; p53fl/fl mouse mammary tumors (KB1P (Kester, L., et al. Clin Cancer Res, 2022.)) and from MMTV-PyMT (Duarte, A. A., et al. Nat Methods, 2018. 15(2): p. 134-140) mouse mammary tumors. Both lines were cultured in 50 μl drops of Cultrex PathClear Reduced Growth Factor Basement Membrane Extract Type 2 (BME, Amsbio, 3533-005-02). KB1P organoids were cultured in Advanced Dulbecco's modified Eagle's medium (adDMEM/F12; Thermo Fisher Scientific. Cat. No. 12634-010) containing Hepes (10 mmol/L; Thermo Fisher Scientific, Cat. No. 15630-056), Penicillin/streptomycin (10,000 U/ml; Thermo Fisher Scientific, Cat. No. 15140-122), B27 (2% Thermo Fisher Scientific, Cat. No. 17504-044), N-acetylcysteine (1.25 mM; Sigma-Aldrich, Cat. No. A9165) and fibroblast growth factor (FGF, 12 ng/ml; Invitrogen, Cat. No. PHG0261). MMTV-PyMT organoids were cultured in DMEM/F12 GlutaMAX (Gibco, Cat. No 10565018) supplemented with 10 mmol/L Hepes (Gibco, Cat. No 15630106), Penicillin/streptomycin (10,000 U/ml; Thermo Fisher Scientific, Cat. No. 15140-122), B27 (2% Thermo Fisher Scientific, Cat. No. 17504-044) and fibroblast growth factor (FGF, 12 ng/ml; Invitrogen, Cat. No. PHG0261). […]
Following co-culture, medium was removed, and cultures were washed in PBS to remove T cells. […] Plates were read with a 565 nm wavelength.

tumor-reactive T cells = assay: Tumor recognition assay and viability of patient-derived tumor-reactive T cells; assay type: cell-based, human; details: 10 nmol/L docetaxel
Procedure: Tumor-reactive patient T cells were generated by co-culturing PBMCs and autologous tumor organoids as described previously (Dekkers, J. F., et al. Nat Protoc, 2021. 16(4): p. 1936-1965; Cattaneo, C. M., et al. Nat Protoc, 2020. 15(1): p. 15-39). In brief, following incubation with 200 ng/ml IFNγ for 24 hr, patient tumor organoids were dissociated into single cell suspensions using TripLE Express. Tumor organoid cells were mixed with patient PBMCs ([…]) and […] were seeded in each well of a U-bottom 96-well plate pre-coated with 5 μg/ml αCD28 antibody. Co-culture medium consisted of RPMI 1640 supplemented with 2 mmol/L Ultraglutamine I, penicillin/streptomycin, 10% human AB serum, 150 U/ml rh-IL-2 and 20 μg/ml αPD1 blocking antibody (Merus, The Netherlands). Medium, IL-2 and αPD1 were refreshed every 2-3 days. PBMCs were harvested and re-stimulated every 7 days by re-plating with fresh tumor organoid cells. After two weeks of co-culture, PBMCs were harvested and used for downstream analysis or cryopreserved for later use.
Tumor-reactive PBMC were thawed in pre-warmed T cells medium and incubated for 15 minutes with 25 U/mL Benzonase. After washing, cells were re-suspended at 2−3×10^6 cells/ml in T cell medium and cultured overnight at 37° C. T cell medium consisted of RPMI 1640 supplemented with 2 mmol/L Ultraglutamine I, penicillin/streptomycin, 10% human AB serum and 150 U/ml rh-IL-2. The day after, PBMC were incubated with (or without) 10 nmol/L docetaxel for 48 h.
For evaluation of tumor reactivity, […] were re-stimulated with autologous tumor organoids or autologous healthy organoids (isolated from Geltrex for 48 h and stimulated with 200 ng/ml IFNγ for 24 h, as described in (Dekkers, J. F., et al. Nat Protoc, 2021. 16(4): p. 1936-1965; Cattaneo, C. M., et al. Nat Protoc, 2020. 15(1): p. 15-39; Voorwerk, L., et al. Nat Med, 2019. 25(6): p. 920-928) at a 2:1 effector: target ratio and seeded in αCD28 coated plates in the presence of 20 μg/ml αPD1 and co-cultured for 24 hours. At the end of the 24 h, 50 μl of the assay supernatant were taken on the side and used for the quantification of the secreted IFNγ. To this purpose, the Human IFN-γ Flex Set (BD bioscience) was used in accordance with the manufacturer's instructions. For the evaluation of CD137 expression, at the end of the 24 h, cells were washed twice in FACS buffer and stained with the following antibodies: αCD3 PerCPCy5.5, αCD4 FITC, αCD8 BV421, αCD137 APC, and near IR viability dye for 30 minutes at 4° C. in the dark. […] Cells were then washed twice with FACS buffer and recorded with a Becton Dickinson Fortessa or LSRII flow cytometer.

CC(=O)O[C@@]12CO[C@@H]1C[C@H](O)[C@@]1(C)C(=O)[C@H](O)C3=C(C)[C@@H](OC(=O)[C@H](O)[C@@H](NC(=O)OC(C)(C)C)c4ccccc4)C[C@@](O)([C@@H](OC(=O)c4ccccc4)[C@H]21)C3(C)C [docetaxel]
IC50 (MMTV-PyMT organoids): 130 nM | IFNγ secretion by T cells (tumor-reactive T cells): did not enhance IFNγ secretion | T cell viability (tumor-reactive T cells): did not significantly alter T cell viability | ability of T cells to recognize tumor organoids (CD137) (tumor-reactive T cells): did not increase | expression of CD137, CD107 or PD1 (tumor-reactive T cells): did not increase
